Some test systems named below: OVCAR-5 ovarian; SF-295 CNS; SK-MEL-5 melanoma; ACHN renal; OVCAR-3 ovarian; HL-60(TB) leukemia; TK-10 renal; OVCAR-8 ovarian; SNB-19 CNS; DU-145 prostate; CAKI-1 renal; SNB-75 CNS; K-562 leukemia; SK-MEL-28 melanoma; RXF 393 renal; NCI-H23 lung; BT-549 breast; SK-OV-3 ovarian; SF-268 CNS.
Holding throughout (assay): NCI-60 cell line screen, 48 h

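Where inhibition never reached the appropriate level, the endpoint shown equals the highest concentration tested. Otherwise, values were interpolated linearly from a five-concentration, 48-hour dose response in 96-well plates. TGI: total growth inhibition.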 A value given as a limit tells only on which side of the number the result lay.

As to `C=CCc1cc(C=C(C#N)C#N)cc(OC)c1O`, the TGI is > 100 µM in the experiment on OVCAR-5 ovarian; > 100 µM with SF-295 CNS; > 100 µM in the experiment on SK-MEL-5 melanoma; > 100 µM in the experiment on ACHN renal; > 100 µM in the experiment with OVCAR-3 ovarian; 89.1 µM in the experiment with HL-60(TB) leukemia. Moreover, the TGI in the experiment with TK-10 renal, in the experiment with OVCAR-8 ovarian, in the experiment with SNB-19 CNS, in the experiment on DU-145 prostate, with CAKI-1 renal and in the experiment with SNB-75 CNS was > 100 µM in each case. Moreover, the TGI in the experiment with K-562 leukemia, in the experiment with SK-MEL-28 melanoma, in the experiment with RXF 393 renal, with NCI-H23 lung, with BT-549 breast and in the experiment with SK-OV-3 ovarian was > 100 µM each time.

Regarding `COc1ccc(/C=C/C(=N/NC(=O)N/N=C(/C=C/c2ccc(OC)cc2)C(C)(C)CN2CCCCC2)C(C)(C)CN2CCCCC2)cc1`, the TGI worked out at 8.16 µM in the experiment on OVCAR-5 ovarian; 3.45 µM in the experiment on SF-295 CNS; 3.01 µM in the experiment on SK-MEL-5 melanoma; 3.19 µM in the experiment with ACHN renal; 3.81 µM with OVCAR-3 ovarian; 3.22 µM in the experiment with HL-60(TB) leukemia. Besides, the TGI is 3.67 µM in the experiment with TK-10 renal; 3.4 µM in the experiment with OVCAR-8 ovarian; 6.4 µM in the experiment with SNB-19 CNS; > 10 µM in the experiment with DU-145 prostate; 4.33 µM with CAKI-1 renal; 2.89 µM in the experiment with SNB-75 CNS. Moreover, the TGI in the experiment on K-562 leukemia is 1.89 µM; in the experiment with SK-MEL-28 melanoma, 2.92 µM; with RXF 393 renal it was 2.72 µM; with NCI-H23 lung, > 10 µM; in the experiment on BT-549 breast, 3.58 µM; in the experiment on SK-OV-3 ovarian, 3.49 µM.

For the molecule `C[n+]1c2ccccc2n2c3ccccc3c(NCCc3ccccn3)c(C#N)c21`, the TGI was > 21.7 µM in the experiment on OVCAR-5 ovarian; 15.9 µM in the experiment with SF-295 CNS; > 22.4 µM with SF-268 CNS; > 20.1 µM in the experiment on ACHN renal; > 25.7 µM in the experiment on OVCAR-3 ovarian; 7.9 µM in the experiment on HL-60(TB) leukemia. Besides, the TGI with TK-10 renal is 7.88 µM; with SNB-19 CNS, > 26.8 µM; in the experiment with DU-145 prostate it was 7.01 µM; in the experiment on CAKI-1 renal it was 6.68 µM; with SNB-75 CNS, 5.22 µM; in the experiment with K-562 leukemia it was > 100 µM. The TGI in the experiment with SK-MEL-28 melanoma is 5.51 µM; in the experiment with RXF 393 renal it was 4.62 µM; with NCI-H23 lung, 11 µM; in the experiment on BT-549 breast, > 23.3 µM; in the experiment with SK-OV-3 ovarian it was 17.8 µM.

As for `COC1(OC)N=C(N)C2(C#N)C3(C(=O)N(C(C)C)N=C3C)C12C#N` (stereo not drawn), the TGI with OVCAR-5 ovarian, in the experiment with SF-295 CNS, with SF-268 CNS, in the experiment on ACHN renal, in the experiment with OVCAR-3 ovarian and with HL-60(TB) leukemia was > 100 µM throughout. The TGI in the experiment with OVCAR-8 ovarian, in the experiment with SNB-19 CNS, in the experiment with DU-145 prostate, in the experiment on CAKI-1 renal, with SNB-75 CNS and in the experiment on K-562 leukemia was > 100 µM in each case. Also, the TGI in the experiment with SK-MEL-28 melanoma, with RXF 393 renal, in the experiment with NCI-H23 lung, in the experiment on BT-549 breast and with SK-OV-3 ovarian was > 100 µM in each case.

As to `CN1C(=O)C(C(N)=O)C2CC1(C)Oc1ccccc12` (stereo not drawn), the TGI in the experiment with OVCAR-5 ovarian, with SF-268 CNS, in the experiment on SK-MEL-5 melanoma, with ACHN renal, in the experiment with OVCAR-3 ovarian and with HL-60(TB) leukemia was > 100 µM in each case. For the same molecule, the TGI in the experiment with OVCAR-8 ovarian, in the experiment with SNB-19 CNS, in the experiment with DU-145 prostate, in the experiment on CAKI-1 renal, in the experiment on SNB-75 CNS and in the experiment with K-562 leukemia was > 100 µM each time. The TGI in the experiment on SK-MEL-28 melanoma, in the experiment on RXF 393 renal, in the experiment on NCI-H23 lung, in the experiment on BT-549 breast and with SK-OV-3 ovarian was > 100 µM in each case.

For `O=C1CCCC(=O)N1n1c(Cc2ccccc2)n[nH]c1=O`, the TGI in the experiment with OVCAR-5 ovarian, in the experiment on SF-295 CNS, in the experiment with SF-268 CNS, in the experiment with SK-MEL-5 melanoma, with ACHN renal and in the experiment with OVCAR-3 ovarian was > 100 µM in each case. The TGI in the experiment with HL-60(TB) leukemia, with TK-10 renal, in the experiment with OVCAR-8 ovarian, in the experiment with DU-145 prostate, with CAKI-1 renal and with SNB-75 CNS was > 100 µM throughout. In addition, the TGI in the experiment with K-562 leukemia, in the experiment on SK-MEL-28 melanoma, with RXF 393 renal, in the experiment with NCI-H23 lung, in the experiment on BT-549 breast and in the experiment with SK-OV-3 ovarian was > 100 µM in each case.

In the case of `COC(=O)C1(C(=O)OC)N=C(C)OC1c1ccccn1` (stereo not drawn), the TGI with OVCAR-5 ovarian, in the experiment with SF-295 CNS, with SK-MEL-5 melanoma, with ACHN renal, in the experiment on OVCAR-3 ovarian and in the experiment with HL-60(TB) leukemia was > 100 µM throughout. For the same molecule, the TGI with TK-10 renal, with OVCAR-8 ovarian, with SNB-19 CNS, in the experiment on DU-145 prostate, with CAKI-1 renal and in the experiment with SNB-75 CNS was > 100 µM throughout. In addition, the TGI with K-562 leukemia, in the experiment on SK-MEL-28 melanoma, in the experiment with RXF 393 renal, in the experiment with NCI-H23 lung, with BT-549 breast and in the experiment with SK-OV-3 ovarian was > 100 µM each time.
